Source: publication PMC6413231, “o-Vanillin Derived Schiff Bases and Their Organotin(IV) Compounds: Synthesis, Structural Characterisation, In-Silico Studies and Cytotoxicity” (International Journal of Molecular Sciences, 2019)

Columns and labels:
RT-112 cells = assay: Intracellular ROS measurement (DCFH-DA); assay type: cell-based, human; details: 24 h, DMSO as control
Source text: Two compounds with the most promising bioactivity, Ph2Sn(S2MoVa) and Ph2Sn(S4MoVa), were selected for further cell apoptosis studies, in order to evaluate the primary damage to biological macromolecules through redox reactions, particularly via formation of ROS [68]. ROS are highly reactive molecules/radicals (O2, O2^•, H2O2, HO^•) that are continuously generated during aerobic metabolism, but when in excessive amounts, can lead to protein and DNA oxidation, protein cross-linking and cell death. Estimation of the levels of ROS in cell culture is an important step towards better understanding the mechanisms that lead to cell death or disease processes. […] ROS production was measured using the ROS-detecting fluorescent dye DCFH-DA and DMSO was used as a control. Both compounds were able to induce ROS production in RT-112 cell lines after 24 h.
Intracellular ROS measurements were used to assess antioxidant or ROS activity. Measurements were performed using a fluorescence plate reader following to the procedure outlines in the ROS detection kit (OxiSelect™). […] The cells were then read on a standard Infinite M200 fluorescence microplate reader (Tecan, Männedorf, Switzerland). The ROS or antioxidant content in unknown samples was determined by comparison with the predetermined DCF standard curve.

[1] = tested on: MCF-10A (normal breast) cell line; assay: MTT growth inhibition assay, MCF10A; assay type: cell-based; details: MCF10A normal breast cells, 72 h, ± standard error, read-out: Growth Inhibition Concentration, GI50
Description: (§1) The Schiff bases and their organotin(IV) compounds were screened for in vitro cytotoxicity against a panel of 12 cancer cell lines: EJ-28 (muscle invasive bladder), RT-112 (minimum-invasive bladder), HT29 (colon), U87 and SJ-G2 (glioblastoma), MCF-7 (breast), A2780 (ovarian), H460 (lung), A431 (skin), DU145 (prostate), BE2-C (neuroblastoma), MIA (pancreatic) and one normal breast cell line (MCF-10A) using the MTT metabolic assay (Figure 6). After 72 h of incubation, a dose-dependent […] effect towards the cancer cell lines was measured at very low micromolar (µM) concentrations of the compounds. The growth inhibition concentration of the Schiff bases and their organotin(IV) compounds required to inhibit 50% cell proliferation relative to the cells that were treated with DMSO (control) are given in Table 2. The stability of these compounds was assessed in DMSO as well as in a mixture of DMSO-H2O. The absorbance obtained from UV-vis spectroscopy analysis was monitored for 72 h, and an unchanged pattern in the spectra was indicative that the compounds were stable in both the solvent systems tested.
(§2) For HT29 (colon), U87 and SJ-G2 (glioblastoma), MCF-7 (breast), A2780 (ovarian), H460 (lung), A431 (skin), Du145 (prostate), BE2-C (neuroblastoma), MIA (pancreas) cell lines and one normal breast cell line, MCF-10A (normal breast), the MTT assays were performed using the following method:
(§3) Stock solutions were prepared as follows and stored at −20 °C: Trial compounds were stored as 10 mM solutions in DMSO. All cell lines were cultured in a humidified atmosphere 5% CO2 at 37 °C. The cancer cell lines were maintained in Dulbecco’s modified Eagle’s medium (DMEM) (Trace Biosciences) supplemented with 10% foetal bovine serum, 10 mM sodium bicarbonate, penicillin (100 IU/mL), streptomycin (100 μg/mL) and glutamine (4 mM). The normal cell line, MCF-10A was cultured in DMEM:F12 (1:1) cell culture media, 5% heat inactivated horse serum, supplemented with penicillin (50 IU/mL), streptomycin (50 μg/mL), 20mM Hepes, L-glutamine (2 mM), epidermal growth factor (20 ng/mL), hydrocortisone (500 ng/mL), cholera toxin (100 ng/mL) and insulin (10 μg/mL).
(§4) Cells in logarithmic growth were transferred to 96-well plates. Cytotoxicity was determined by plating cells in duplicate in 100 μL medium at a density of 2500–4000 cells/well. On day 0 (24 h after plating), when the cells were in logarithmic growth, 100 μL medium, with or without the test agent, was added to each well. After 72 h drug exposure, growth inhibitory effects were evaluated using the MTT (3-[4,5-dimethylthiazol-2-yl]-2,5-diphenyltetrazolium bromide) assay and absorbance read at 540 nm. Percentage growth inhibition was determined at a fixed drug concentration of 25 μM. A value of 100% was indicative of complete cell growth inhibition. Those analogues showing appreciable percentage growth inhibition underwent further dose-response analysis allowing for the calculation of a GI50 value. This value is the drug concentration at which cell growth is 50% inhibited based on the difference between the optical density values on day 0 and those at the end of drug exposure.

H460 (lung) cancer cells = assay: MTT growth inhibition assay, H460; assay type: cell-based; details: 72 h, ± standard error, read-out: Growth Inhibition Concentration, GI50
Description: as §1, §2, §3, §4

[2] = tested on: A2780 (ovarian) cancer cells; assay: MTT growth inhibition assay, A2780; assay type: cell-based; details: 72 h, ± standard error, read-out: Growth Inhibition Concentration, GI50
Description: as §1, §2, §3, §4

[3] = tested on: MIA (pancreatic) cancer cells; assay: MTT growth inhibition assay, MIA; assay type: cell-based; details: 72 h, ± standard error, read-out: Growth Inhibition Concentration, GI50
Description: as §1, §2, §3, §4

[4] = tested on: BE2-C (neuroblastoma) cancer cells; assay: MTT growth inhibition assay, BE2-C; assay type: cell-based; details: 72 h, ± standard error, read-out: Growth Inhibition Concentration, GI50
Description: as §1, §2, §3, §4

Substance	ROS generation (RT-112 cells)	GI50 [1]	GI50 (H460 (lung) cancer cells)	GI50 [2]	GI50 [3]	GI50 [4]
Diphenyltin(IV) [Ph2Sn(S4MoVa), Diphenyltin(IV) [S-4-Methybenzyl-β-N-(2-hydroxy-3-methoxybenzylmethylene) dithiocarbazate]]	stimulated ROS generation	1100 ± 370 nM	1900 ± 230 nM	350 ± 70 nM	390 ± 30 nM	530 ± 10 nM
Diphenyltin(IV) [Ph2Sn(S2MoVa), Diphenyltin(IV) [S-2-Methybenzyl-β-N-(2-hydroxy-3-methoxybenzylmethylene) dithiocarbazate]]	stimulated ROS generation	1200 ± 300 nM	2800 nM	230 ± 10 nM	340 ± 20 nM	470 ± 50 nM
